# US7445791B2, “Synergistic insecticidal composition containing Chloronicotynyle and Organosphosphorus compounds” (priority 2004, dated 2008)
# Where two headings read alike, the source gives them in different places.
# How the values were obtained:
# [1] = 20° C.; cited from earlier work
# [2] = tested on: crop plants; details: cited from earlier work
# [3] = cited from earlier work; for DT50 hydrolysis: 40° C.; for DT 50 (calculated) hydrolysis: 20° C.
# [4] = tested on: Brown plant hoppers and Green plant hoppers; assay type: in vivo; details: 5 days after treatment
# Experimental: In this evaluation, Brown plant hoppers and Green plant hoppers are obtained from laboratory colonies. Paddy leaves are immersed in 1:1 v/v, acetone/water solutions of the test compound, or solution of a combination of the test compounds, for a period of about 4 seconds. Following immersion, leaves are allowed to air-dry for 2-3 hours. Plastic bioassay trays containing multiple open-faced wells (4.0×4.0×2.5 cm) are used. Cut portions of a treated leaf, a moistened cotton dental wick and a single third-instar larva are placed into each well. These wells are covered with an adhesive vented clear plastic sheet which is held under constant fluorescent light at about 30° C. for a predetermined period of time. Larval mortality/morbidity is evaluated at 5 days after treatment. All treatments are replicated 3-4 fold in a randomized complete block design with 15-30 larvae per treatment. Using conventional log-probit analysis, the LC50 of each treatment is determined.
# Using the above process, a Chloronicotynyle compound may be evaluated alone and in combination with a second insecticidal compound, Imidacloprid, at dose rates of 0, 15, 18, 21, 24, 27 and 30 ppm and in combination with Acephate 0, 400, 500, 600, 700, 800 ppm in various combination of these strengths.
# Synergism can be calculated by using the Colby's method i.e. the expected (or predicted) response of the combination is calculated by taking the product of the observed response for each individual component of the combination when applied alone divided by 100 and subtracting this value from the sum of observed response for each component when applied alone. Synergism of the combination is then determined by comparing the observed response of the combination to the expected (or predicted) response as calculated from the observed response of each individual component alone. If the observed response of the combination is greater than the expected (or predicted) response then the combination is said to be synergistic and falls within the definition of synergistic effect. (Colby, S. R., Weeds, 1967(15), p. 20-22).
# [5] = cited from earlier work
# [6] = tested on: nematodes and spider mites; details: cited from earlier work
# [7] = tested on: mice; details: cited from earlier work
# [8] = mammals, oral administration, almost entirely in the urine; cited from earlier work
molecule,measurement,setting,value
"COP(=O)(NC(C)=O)SC (stereo not shown) [Acephate, O,S-dimethylacetylphosphoramidothioate]",solubility in water,[1],about 790 g/l
same,phytotoxicity to crop plants (in words),[2],non-phytotoxic to most crop plants
same,DT50 hydrolysis,[3]; pH 3,710 h
same,DT50 hydrolysis,[3]; pH 9,60 h
same,Observed Mortality %,[4]; Acephate 600 ppm alone,52.50%
same,Observed Mortality %,[4]; Acephate 700 ppm alone,60.00%
same,Observed Mortality %,[4]; Acephate 800 ppm alone,70.00%
same,solubility in acetone,[5]; 20° C.,151 mg/mL
same,solubility in benzene,[5]; 20° C.,16 mg/mL
same,solubility in ethanol,[5]; 20° C.,> 100 mg/mL
same,solubility in ethyl acetate,[5]; 20° C.,35 mg/mL
same,solubility in hexane,[5]; 20° C.,0.1 mg/mL
"O=[N+]([O-])NC1=NCCN1Cc1ccc(Cl)nc1 [Imidacloprid, 1-(6-chloro-3-pyridylmethyl)-N-nitroimidazolidin-2-yldeneamine]",effect on nematodes and spider mites,[6],no effect
same,acute oral LD50,[7],150 mg/kg
same,Observed Mortality %,[4]; Imidacloprid 20 ppm alone,47.30%
same,solubility in dichloromethane,[5]; 20° C.,55 mg/mL
same,solubility in hexane,[5]; 20° C.,< 0.1 mg/mL
same,solubility in isopropanol,[5]; 20° C.,1.2 mg/mL
same,solubility in toluene,[5]; 20° C.,0.68 mg/mL
"CCN(CC)C(=O)C(Cl)=C(C)OP(=O)(OC)OC [Phosphamidon, 2-chloro-2-diethylcarbamoyl-1-methylvinyldimethylphosphate]",DT 50 (calculated) hydrolysis,[3]; pH 5,60 days
same,DT 50 (calculated) hydrolysis,[3]; pH 7,54 days
same,DT 50 (calculated) hydrolysis,[3]; pH 9,12 days
same,hydrolysis in alkali (in words),[3]; alkali,rapidly hydrolysed
same,dose excreted within 24 hours,[8],85-90%
same,Observed Mortality %,[4]; Phosphamidon 320 ppm alone,60.0%
same,Observed Mortality %,[4]; Phosphamidon 370 ppm alone,65%
same,Observed Mortality %,[4]; Phosphamidon 400 ppm alone,72.0%
(E)-N′-[(6-chloro-3-pyridyl)methyl]-N-cyano-N-methylacetamidine [Acetamiprid],solubility in organic solvents (in words),"[5]; acetone, methanol, ethanol, dichloromethane, chloroform, acetonitrile and tetrahydrofuron",Soluble
